This passage reports EC50 results from patent US20120252853A1, “Positive allosteric modulators of nicotinic acetylcholine receptor” (H. Lundbeck A/S, priority 2011, published 2012).

Sequence of human α7 receptor (P36544 23-502): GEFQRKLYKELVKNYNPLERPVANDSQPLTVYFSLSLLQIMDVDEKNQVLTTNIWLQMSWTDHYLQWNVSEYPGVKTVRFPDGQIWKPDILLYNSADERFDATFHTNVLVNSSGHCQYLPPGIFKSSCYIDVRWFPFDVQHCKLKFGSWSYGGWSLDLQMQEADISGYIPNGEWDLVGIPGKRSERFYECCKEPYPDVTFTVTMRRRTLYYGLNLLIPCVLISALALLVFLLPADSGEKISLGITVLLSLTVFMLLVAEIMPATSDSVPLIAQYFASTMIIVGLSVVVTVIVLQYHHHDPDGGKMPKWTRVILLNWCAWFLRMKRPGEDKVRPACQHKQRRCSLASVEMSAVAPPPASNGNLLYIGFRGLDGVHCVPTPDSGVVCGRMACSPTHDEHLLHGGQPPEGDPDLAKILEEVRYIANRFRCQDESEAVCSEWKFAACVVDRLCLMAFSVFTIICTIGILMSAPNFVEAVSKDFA

This test addresses human α7 receptor (Homo sapiens, UniProt P36544). In words: α7 NNR flux assay (FDSS Ca assay). The test is classed as cell-based. The conditions noted are these: positive allosteric modulation; rat GH4C1 cell line stably expressing human α7; acetylcholine 20 μM; % modulation relative to PNU-120596 set to 100%. As for the experimental part:
In this version of the assay, the human α7 receptor is stably expressed in the rat GH4C1 cell line. The assay was used to identify positive allosteric modulators (PAMs) of the α7 receptor. Activation of the channel was measured by loading cells with the calcium-sensitive fluorescent dye Calcium-4 (Assay kit from Molecular Devices), and then measuring real-time changes in fluorescence upon treatment with test compounds.
The cell line ChanClone GH4C1-nAChRalpha7 from Genionics was seeded from frozen stock in 384-well plates in culture media 2-3 days before experiment to form an approximately 80% confluent layer on the day of experiment.
The cell culture were split into “22.5 cm×22.5 cm”-plates with approximately 100×10^3 cells/cm^2. After four days incubation in a humidified incubator at 37° C. and 5% CO2, it had grown to an 80-90% confluent layer, and the cells were harvested.
Two or three days before the experiment the cells were seeded in 384 well plates from Greiner bio-one (781946, CELLCOAT, Poly-D-Lysine, black, μClear).
The cells were seeded in 384 well plates with 30 μL/well (30000 cells/well) while stirring the cell suspension or otherwise preventing the cells from precipitating. The plates were incubated at room temperature for 30-45 minutes. The plates were placed in incubator for two days (37° C. and 5% CO2).
The loading buffer was 5% v/v Calcium-4 Kit and 2.5 mM Probenecid in assay buffer.
Culture media were removed from the cell plates and 20 μL loading buffer was added in each well. The cell plates were placed in trays and incubated 90 minutes in the incubator (37° C.). Thereafter the plates were incubated 30 minutes at room temperature, still protected from light. Now the cell plates were ready to run in the Functional Drug Screening System (FDSS) The assay buffer was HBSS with 20 mM HEPES, pH 7.4 and 3 mM CaCl2.
200 nL 10 mM compound solution in DMSO was diluted in 50 μL assay buffer. The final test concentrations in the cell plates were 20-10-5-2.5-1.25-0.625-0.312-0.156-0.078-0.039 μM. Assay buffer and 3 μM PNU-120596 were used for control:
The agonist acetylcholine was added to a final concentration of 20 μM (˜EC100). In the FDSS7000 the Ex480-Em540 was measured with 1 second intervals. The baseline was made of 5 frames before addition of test compounds, and 95 frames more were made before addition of acetylcholine. The measurement stopped 30 frames after the 2nd addition. Raw data for each well were collected as “the maximum fluorescence count” in the interval 100-131 seconds and as “the average fluorescence count” in the interval 96-100 seconds. The positive allosteric modulation in the 2nd addition was the enhancement of agonist response with test compound compared to agonist alone.
Results were calculated as % modulation of test compound compared to the reference PNU-120596 set to 100%.
The term EC50 denotes the concentration giving half of the maximal effect. Higher therefore signals a need for much substance. Turning to `Cc1cc2cc(CNC(=O)c3cc(CC(F)(F)F)no3)ccc2n1C(F)(F)F` [Compound 85, N-[[2-methyl-1-(trifluoromethyl)indol-5-yl]methyl]-3-(2,2,2-trifluoroethyl)isoxazole-5-carboxamide], the EC50 is 7.7 µM.

`Cc1cc2cc(CNC(=O)c3cc(C(C)(C)C)on3)ccc2[nH]1` [Compound 87, 5-tert-butyl-N-[(2-methyl-1H-indol-5-yl)methyl]isoxazole-3-carboxamide]: the EC50 was determined as 2.6 µM.

`Cn1c(C(F)(F)F)cc2cc(CNC(=O)c3cnn(CC(F)(F)F)c3)ccc21` [Compound 88, N-[[1-methyl-2-(trifluoromethyl)indol-5-yl]methyl]-1-(2,2,2-trifluoroethyl)pyrazole-4-carboxamide]: the EC50 was 6.2 µM.

For `Cc1cc(C(=O)NCc2ccc3c(c2)cc(C(F)(F)F)n3C)on1` [Compound 89, 3-methyl-N-[[1-methyl-2-(trifluoromethyl)indol-5-yl]methyl]isoxazole-5-carboxamide], a half-maximal effect (EC50) was put at 5.6 µM.

For `Cn1c(C(F)(F)F)cc2cc(CNC(=O)c3cc(CC(F)(F)F)no3)ccc21` [Compound 90, N-[[1-methyl-2-(trifluoromethyl)indol-5-yl]methyl]-3-(2,2,2-trifluoroethyl)isoxazole-5-carboxamide], a half-maximal effect (EC50) was put at 5 µM.

As for `O=C(NCc1ccc2[nH]c(C(F)F)cc2c1)c1cnn(CC(F)(F)F)c1` [Compound 91, N-[[2-(difluoromethyl)-1H-indol-5-yl]methyl]-1-(2,2,2-trifluoroethyl)pyrazole-4-carboxamide], a half-maximal effect (EC50) was put at 1.7 µM. Compared with the last compound, the EC50 is about 2.9-fold lower.

As to `Cc1cc(C(=O)NCc2ccc3[nH]c(C(F)F)cc3c2)on1` [Compound 92, N-[[2-(difluoromethyl)-1H-indol-5-yl]methyl]-3-methyl-isoxazole-5-carboxamide], the EC50 amounted to 8.3 µM.

`O=C(NCc1ccc2[nH]c(C(F)F)cc2c1)c1cc(CC(F)(F)F)no1` [Compound 93, N-[[2-(difluoromethyl)-1H-indol-5-yl]methyl]-3-(2,2,2-trifluoroethyl)isoxazole-5-carboxamide] displayed a half-maximal effective concentration (EC50) of 5.4 µM.

Regarding `Cc1cc2cc(CNC(=O)c3ccn(CCF)n3)ccc2[nH]1` [Compound 94, 1-(2-fluoroethyl)-N-[(2-methyl-1H-indol-5-yl)methyl]pyrazole-3-carboxamide], the EC50 came out at 9.5 µM.

`COCCn1ccc(C(=O)NCc2ccc3[nH]c(C)cc3c2)n1` [Compound 95, 1-(2-methoxyethyl)-N-[(2-methyl-1H-indol-5-yl)methyl]pyrazole-3-carboxamide] had an EC50 of 7.7 µM.

`COCc1cc(C(=O)NCc2ccc3[nH]c(C)cc3c2)on1` [Compound 98, 3-(methoxymethyl)-N-[(2-methyl-1H-indol-5-yl)methyl]isoxazole-5-carboxamide] came in with an EC50 of 3.5 µM.

Turning to `Cc1cc2cc(CNC(=O)c3cnn(CCF)c3)ccc2[nH]1` [Compound 99, 1-(2-fluoroethyl)-N-[(2-methyl-1H-indol-5-yl)methyl]pyrazole-4-carboxamide], the EC50 was 6.4 µM.

Take `COCCn1cc(C(=O)NCc2ccc3[nH]c(C)cc3c2)cn1` [Compound 100, 1-(2-methoxyethyl)-N-[(2-methyl-1H-indol-5-yl)methyl]pyrazole-4-carboxamide]: the concentration for a half-maximal effect (EC50) was 8.5 µM. The EC50 values of the last two compounds are within 1.5-fold of each other.

`Cc1[nH]c2ccc(CNC(=O)c3cnn(CC(F)(F)F)c3)cc2c1C` [Compound 101, N-[(2,3-dimethyl-1H-indol-5-yl)methyl]-1-(2,2,2-trifluoroethyl)pyrazole-4-carboxamide] yielded an EC50 of 2.9 µM.

Turning to `Cc1cc(C(=O)N[C@H](C)c2cc3cc(C)[nH]c3cc2F)on1` [Compound 102, N-[(1R)-1-(6-fluoro-2-methyl-1H-indol-5-yl)ethyl]-3-methyl-isoxazole-5-carboxamide], a half-maximal effect (EC50) was put at 1 µM. This EC50 is about 2.9-fold lower than that of the compound before.

With `Cc1cc(C(=O)N[C@H](C)c2cc3cc[nH]c3c(C)c2F)on1` [Compound 103], a half-maximal response (EC50) required 0.33 µM.

Take `Cc1cc(C(=O)NCc2cc3cc(C)[nH]c3cc2F)on1` [Compound 104, N-[(6-fluoro-2-methyl-1H-indol-5-yl)methyl]-3-methyl-isoxazole-5-carboxamide]: the EC50 is 4.2 µM.

In turn, `Cc1cc(C(=O)NCc2cc3cc[nH]c3c(C)c2F)on1` [Compound 105, N-[(6-fluoro-7-methyl-1H-indol-5-yl)methyl]-3-methyl-isoxazole-5-carboxamide] yielded an EC50 of 2.9 µM.

`Cc1cc2cc(CNC(=O)c3cc(CCF)no3)ccc2[nH]1` [Compound 106, 3-(2-fluoroethyl)-N-[(2-methyl-1H-indol-5-yl)methyl]isoxazole-5-carboxamide]: it took 1.7 µM to reach a half-maximal effect (EC50). This EC50 is about 1.7-fold lower than that of the compound before.

The compound `Cc1cc(C(=O)NCc2ccc3[nH]c(C)cc3c2)sn1` [Compound 107, 3-methyl-N-[(2-methyl-1H-indol-5-yl)methyl]isothiazole-5-carboxamide] showed an EC50 of 0.56 µM.

As for `Cc1cc(C(=O)NCc2ccc3[nH]c(CC(F)(F)F)cc3c2)on1` [Compound 108, 3-methyl-N-[[2-(2,2,2-trifluoroethyl)-1H-indol-5-yl]methyl]isoxazole-5-carboxamide], the response was half-maximal at 7.7 µM (EC50).

Regarding `Cc1cc(C(=O)NCc2cc(F)c3[nH]c(C)cc3c2)on1` [Compound 109, N-[(7-fluoro-2-methyl-1H-indol-5-yl)methyl]-3-methyl-isoxazole-5-carboxamide], the EC50 stood at 3.1 µM.

Consider `Cc1cc(C(=O)NCc2ccc3[nH]c(C)cc3c2F)on1` [Compound 110, N-[(4-fluoro-2-methyl-1H-indol-5-yl)methyl]-3-methyl-isoxazole-5-carboxamide], for which a half-maximal response (EC50) required 6.5 µM. Compared with the last compound, the EC50 is about 2.1-fold higher.

The compound `Cc1cc(C(=O)N[C@H](C)c2cc(F)c3[nH]c(C)cc3c2)on1` [Compound 111, N-[(1R)-1-(7-fluoro-2-methyl-1H-indol-5-yl)ethyl]-3-methyl-isoxazole-5-carboxamide] displayed an EC50 of 1.3 µM.

With `COCc1cc(C(=O)N[C@H](C)c2ccc3[nH]c(C)cc3c2)on1` [Compound 112, 3-(methoxymethyl)-N-[(1R)-1-(2-methyl-1H-indol-5-yl)ethyl]isoxazole-5-carboxamide], the EC50 stood at 1.1 µM.

On to `Cc1cc2cc([C@@H](C)NC(=O)c3cc(CCF)no3)ccc2[nH]1` [Compound 113, 3-(2-fluoroethyl)-N-[(1R)-1-(2-methyl-1H-indol-5-yl)ethyl]isoxazole-5-carboxamide], for which the EC50 stood at 0.79 µM.

The compound `COCc1cc(C(=O)NCc2ccc3[nH]c(C(F)(F)F)cc3c2)on1` [Compound 114, 3-(methoxymethyl)-N-[[2-(trifluoromethyl)-1H-indol-5-yl]methyl]isoxazole-5-carboxamide] gave an EC50 of 5 µM.

For the compound `O=C(NCc1ccc2[nH]ccc2c1)c1cc(CCF)no1` [Compound 115, 3-(2-fluoroethyl)-N-(1H-indol-5-ylmethyl)isoxazole-5-carboxamide], the EC50 turned out to be 4.3 µM.

Consider `Cc1cc2cc(CNC(=O)c3ncc(C)o3)ccc2[nH]1` [Compound 116, 5-methyl-N-[(2-methyl-1H-indol-5-yl)methyl]oxazole-2-carboxamide], for which the EC50 was found to be 9.9 µM.

Compound `Cc1cc2cc(CNC(=O)c3cnn4c3CCC4)ccc2[nH]1` [Compound 117, N-[(2-methyl-1H-indol-5-yl)methyl]-5,6-dihydro-4H-pyrrolo[1,2-b]pyrazole-3-carboxamide] registered an EC50 of 7 µM.

For `Cc1cc2cc(CNC(=O)c3cc4n(n3)CCC4)ccc2[nH]1` [Compound 118, N-[(2-methyl-1H-indol-5-yl)methyl]-5,5-dihydro-4H-pyrrolo[1,2-b]pyrazole-2-carboxamide], the EC50 came to 7.2 µM. The EC50 values of the last two compounds are within 1.5-fold of each other.

For `Cc1noc(C(=O)NCc2ccc3[nH]c(C)cc3c2)n1` [Compound 119, 3-methyl-N-[(2-methyl-1H-indol-5-yl)methyl]-1,2,4-oxadiazole-5-carboxamide], it took 7.1 µM to reach a half-maximal effect (EC50).

Regarding `Cc1cc(C(=O)NCc2ccc3[nH]c(C#N)cc3c2)sn1` [Compound 120, N-[(2-cyano-1H-indol-5-yl)-methyl]-3-methyl-isothiazole-5-carboxamide], the EC50 amounted to 3.3 µM.

`Cc1cc(C(=O)N[C@H](C)c2ccc3[nH]c(C#N)cc3c2)on1` [Compound 121, N-[(1R)-1-(2-cyano-1H-indol-5-yl)ethyl]-3-methyl-isoxazole-5-carboxamide]: the response was half-maximal at 4.8 µM (EC50).
